Experimental data from patent US3989598A (priority 1962, dated 1976).
Converted amounts (≈) assume the structure as drawn.

Key:
[1] = system: Staphylococcus aureus strain Hb; assay: bacteriostatic activity, dilution method in nutritive broth; type: cell-based; settings: read-out: Minimal bacteriostatic concentration
[2] = system: Streptococcus faecalis ATCC 9790; assay: as above; type: cell-based; settings: Enterococcus faecalis, ATCC9790, read-out: Minimal bacteriostatic concentration
[3] = system: Salmonella schottmuelleri (paratyphi B) (Fougenc, Institut Pasteur); assay: as above; type: cell-based; settings: read-out: Minimal bacteriostatic concentration
[4] = system: Staphylococcus aureus carbomycin resistant strain; assay: as above; type: cell-based; settings: read-out: Minimal bacteriostatic concentration
[5] = system: Bacillus subtilis ATCC 6633; assay: as above; type: cell-based; settings: ATCC6633, read-out: Minimal bacteriostatic concentration
Proteus X 19 = assay: as above; type: cell-based; settings: read-out: Minimal bacteriostatic concentration
[6] = system: acute lymphoblastic leukemia; assay: utility in treating certain tumours; type: in vivo, human
[7] = system: Serratia marcescens (A. 476,Lausanne); assay: bacteriostatic activity, dilution method in nutritive broth; type: cell-based; settings: read-out: Minimal bacteriostatic concentration
[8] = clinical dosage in acute leukaemias: maximum safe dose; settings: human, in vivo, iv, overall dosage of initial treatment, calculated per kg weight
Protocol: Treatment of acute leukaemias must be intensive and of short duration; depending on the case, it comprises one or more courses. In the lymphoblstic forms of leukaemia, the actual trend is to administer a daily dose of 1 mg/kg body weight of two to eight consecutive days, and to cease injections when the leucopenia reaches 1,000 to 1,500 units per cc. It will be recalled that characteristic changes in the medullary cytology fcilitate the conducting of the treatment and help in its adaptation to each particular case. […] It is, moreover, at the end of the aplastic phase, when the number of leucocytes is rising again, that adjustement of the theraputic dose is difficult. When, the day after medication was stopped the leucopenia worsens and the medullary blasts change, it is required to wait for regeneration of the blood before proceeding with a bone marrow test. If the lqucopenia is not accentuated and the medullary cytology remains high with persistence of blastic cells, a second course is undertaken. […] The overall dosage corresponding to the group of courses making up the initial treatment, such as has just been defined, is far from being uniform; calculated per kg weight, it sometimes reaches 20 mg, a dose of around 25 mg being considered the maximum safe dose. […]

[9] = system: Aerobacter aerogenes - ATCC 8308; assay: bacteriostatic activity, dilution method in nutritive broth; type: cell-based; settings: Klebsiella aerogenes, ATCC8308, read-out: Minimal bacteriostatic concentration
[10] = subacute toxicity in the mouse (one dose per day for 5 days); settings: in vivo
[11] = system: Staphylococcus aureus streptogramin resistant strain; assay: bacteriostatic activity, dilution method in nutritive broth; type: cell-based; settings: read-out: Minimal bacteriostatic concentration
[12] = system: Streptococcus viridans (Institut Pasteur); assay: as above; type: cell-based; settings: read-out: Minimal bacteriostatic concentration
[13] = system: Staphylococcus aureus strain B3; assay: as above; type: cell-based; settings: B3, read-out: Minimal bacteriostatic concentration
[14] = system: Salmonella paratyphi A (Lacasse, Institut Pasteur); assay: as above; type: cell-based; settings: Salmonella enterica, read-out: Minimal bacteriostatic concentration
[15] = system: Diplococcus pneumoniae (strain Til. Institut Pasteur); assay: as above; type: cell-based; settings: Streptococcus pneumoniae, read-out: Minimal bacteriostatic concentration
[16] = system: Escherichia coli - ATCC 9637; assay: as above; type: cell-based; settings: ATCC9637, read-out: Minimal bacteriostatic concentration
Text: For each organism, the lowest concentration of substance has been determined which, under the defined condition, prevents all visible development in an appropriate nutritive broth. The results of various determinations are shown in Table VI, wherein the minimal bacteriostatic concentrations are expressed as micrograms of substance per cubic centimeter of experimental medium.

[17] = system: Staphylococcus aureus strain Launoy 1; assay: as above; type: cell-based; settings: LAUNOY1, strain Launoy 1 (tetracycline, streptomycin, chloramphenicol and penicillin resistant), read-out: Minimal bacteriostatic concentration
[18] = system: Streptococcus faecalis (Thiercelin's enterococcus Fac.Phie); assay: as above; type: cell-based; settings: read-out: Minimal bacteriostatic concentration
[19] = system: Staphylococcus aureus strain 3486 R; assay: as above; type: cell-based; settings: read-out: Minimal bacteriostatic concentration
[20] = system: Bacillus subtilis (strain 3 R 9575, Merck - ATCC 9524); assay: as above; type: cell-based; settings: ATCC9524, read-out: Minimal bacteriostatic concentration
[21] = system: Klebsiella pneumoniae - ATCC 10,031; assay: as above; type: cell-based; settings: ATCC10, read-out: Minimal bacteriostatic concentration
[22] = system: Sarcina lutea - ATCC 9341; assay: as above; type: cell-based; settings: Micrococcus luteus, ATCC9341, read-out: Minimal bacteriostatic concentration
Klebsiella pneumoniae = assay: turbidimetric estimation of activity by comparison with a 9865 RP sample of known activity; type: cell-based; settings: unit = smallest quantity in 1 cc. of medium that inhibits growth of Klebsiella pneumoniae
Text: The following non-limitative Examples illustrate the invention. […] This activity is expressed in units (u) per mg. for solid products and in units per cc. for solution. (The unit is defined as the smallest quantity of product which, dissolved in 1 cc. of an appropriate medium, inhibits the growth of Klebsiella pneumoniae under the conditions in question).

[23] = system: Mycobacterium smegmatis - ATCC 607; assay: bacteriostatic activity, dilution method in nutritive broth; type: cell-based; settings: Mycolicibacterium smegmatis, ATCC607, read-out: Minimal bacteriostatic concentration
blood-forming centers = assay: clinical safety of daunorubicin: blood formation; type: in vivo; settings: human treatment
neuroblastoma = assay: utility in treating certain tumours; type: in vivo, human
Sarcina alba (Fac.Phie) = assay: bacteriostatic activity, dilution method in nutritive broth; type: cell-based; settings: read-out: Minimal bacteriostatic concentration
[24] = system: Proteus vulgaris (Fac. Phie); assay: as above; type: cell-based; settings: read-out: Minimal bacteriostatic concentration
[25] = system: Staphylococcus aureus actinomycin resistant strain; assay: as above; type: cell-based; settings: read-out: Minimal bacteriostatic concentration
[26] = system: Brucella bronchiseptica (CN 387 - Wellcome Institute); assay: microbe, parasite or virus in culture; type: cell-based; settings: Bordetella bronchiseptica, read-out: Minimal bacteriostatic concentration
nephroblastoma = assay: utility in treating certain tumours; type: in vivo, human
[27] = system: Bacillus megatherium (NRRL B 1125); assay: bacteriostatic activity, dilution method in nutritive broth; type: cell-based; settings: read-out: Minimal bacteriostatic concentration

**Q.** Which results are given for `COc1cccc2c1C(=O)c1c(O)c3c(c(O)c1C2=O)C[C@@](O)(C(C)=O)C[C@@H]3O[C@H]1C[C@H](N)[C@H](O)[C@H](C)O1` [13057 RP daunorubicin, daunorubicin]?
**A.** MIC [1]: 5.3 µg/mL (≈ 10 µM); MIC [2]: 30 µg/mL (≈ 56.9 µM); MIC [3]: 1000 µg/mL (≈ 1900 µM); MIC [4]: 5.3 µg/mL (≈ 10 µM); MIC [5]: 1.2 µg/mL (≈ 2.27 µM); MIC (Proteus X 19): 62 µg/mL (≈ 118 µM); utility in treating tumours [6]: proved to be of utility; MIC [7]: 120 µg/mL (≈ 227 µM); MTD [8]: ~25 mg/kg; MIC [9]: 1000 µg/mL (≈ 1900 µM); LD50 ([10]; iv): 8.75 mg/kg; LD50 ([10]; sc): 13.7 mg/kg; MIC [11]: 1.9 µg/mL (≈ 3.6 µM); MIC [12]: 43 µg/mL (≈ 81.5 µM); MIC [13]: 5.2 µg/mL (≈ 9.86 µM); MIC [14]: 16 µg/mL (≈ 30.3 µM); MIC [15]: 0.89 µg/mL (≈ 1.69 µM); MIC [16]: 500 µg/mL (≈ 948 µM); MIC [17]: 7.1 µg/mL (≈ 13.5 µM); MIC [18]: 19 µg/mL (≈ 36 µM); MIC [19]: 5.2 µg/mL (≈ 9.86 µM); MIC [20]: 1.8 µg/mL (≈ 3.41 µM); MIC [21]: 8.9 µg/mL (≈ 16.9 µM); MIC [22]: 1.2 µg/mL (≈ 2.27 µM); activity (Klebsiella pneumoniae): 160 μ/mg.; MIC [23]: 1.2 µg/mL (≈ 2.27 µM); action on the blood-forming centers (blood-forming centers): depressant action; utility in treating tumours (neuroblastoma): proved to be of utility; MIC (Sarcina alba (Fac.Phie)): 3.3 µg/mL (≈ 6.26 µM); MIC [24]: > 2000 µg/mL; MIC [25]: 5.8 µg/mL (≈ 11 µM); MIC [26]: 62 µg/mL (≈ 118 µM); utility in treating tumours (nephroblastoma): proved to be of utility; MIC [27]: 1.3 µg/mL (≈ 2.46 µM)
